This note sets out measurements from patent publication US20250171438A1 (Agios Pharmaceuticals, Inc., priority 2022, published 2025).

The target of the assay is T1, human PAH with the R408W mutation (Homo sapiens, UniProt P00439, R408W).
T1 construct: expressed in transfected cells
T1 sequence (P00439 1-452 R408W): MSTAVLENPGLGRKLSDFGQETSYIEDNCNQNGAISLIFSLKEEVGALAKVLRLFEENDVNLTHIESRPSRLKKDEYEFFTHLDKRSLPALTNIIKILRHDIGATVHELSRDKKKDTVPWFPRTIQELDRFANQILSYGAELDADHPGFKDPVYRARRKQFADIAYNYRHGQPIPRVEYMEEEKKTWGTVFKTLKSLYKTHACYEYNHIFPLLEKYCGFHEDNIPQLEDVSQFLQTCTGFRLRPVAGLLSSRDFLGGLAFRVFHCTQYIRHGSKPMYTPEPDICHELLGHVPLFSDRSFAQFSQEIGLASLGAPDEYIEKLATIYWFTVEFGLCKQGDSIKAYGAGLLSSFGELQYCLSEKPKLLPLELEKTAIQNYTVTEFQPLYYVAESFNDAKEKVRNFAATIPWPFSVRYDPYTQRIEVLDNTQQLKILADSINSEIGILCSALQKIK
Nature of the assay: Cell Based Phenylalanine Flux Assay. Conditions: A375 cells expressing human R408W PAH; 24 hrs compound incubation; 13C-Tyrosine by LC-MS; average where tested multiple times; read-out: AC50.

In general, AC50 refers to the concentration giving half of the maximal activity seen.

`O=C(CCC1CC1)N1CCc2[nH]cnc2[C@@H]1c1nc2cc(F)ccc2s1` [Example 1076, (R)-3-cyclopropyl-1-(4-(5-fluorobenzo[d]thiazol-2-yl)-6,7-dihydro-1H-imidazo[4,5-c]pyridin-5(4H)-yl)propan-1-one]: the AC50 was in the range of 1 to 5 µM.

As for `O=C(CCc1nccs1)N1CCc2[nH]cnc2[C@H]1c1nc2c(F)cccc2s1` [Example 1077, (S)-1-(4-(4-fluorobenzo[d]thiazol-2-yl)-6,7-dihydro-1H-imidazo[4,5-c]pyridin-5(4H)-yl)-3-(thiazol-2-yl)propan-1-one], the AC50 was in the range of 1 to 5 µM. In the case of `O=C(CCc1nccs1)N1CCc2[nH]cnc2[C@@H]1c1nc2c(F)cccc2s1` [Example 1078, (R)-1-(4-(4-fluorobenzo[d]thiazol-2-yl)-6,7-dihydro-1H-imidazo[4,5-c]pyridin-5(4H)-yl)-3-(thiazol-2-yl)propan-1-one], the half-maximal activity concentration (AC50) was over 5 µM. For `Cc1csc(CCC(=O)N2CCc3[nH]cnc3[C@H]2c2nc3ccccc3s2)n1` [Example 1079], the half-maximal activity concentration (AC50) is 0.5 to 1 µM. As to `Cc1csc(CCC(=O)N2CCc3[nH]cnc3[C@@H]2c2nc3ccccc3s2)n1` [Example 1080, (R)-1-(4-(benzo[d]thiazol-2-yl)-6,7-dihydro-1H-imidazo[4,5-c]pyridin-5(4H)-yl)-3-(4-methylthiazol-2-yl)propan-1-one], the AC50 was over 5 µM. As to `O=C(CCc1nccs1)N1CCc2[nH]cnc2[C@H]1c1nc2ccc(Br)cc2s1` [Example 1081, (S)-1-(4-(6-bromobenzo[d]thiazol-2-yl)-6,7-dihydro-1H-imidazo[4,5-c]pyridin-5(4H)-yl)-3-(thiazol-2-yl)propan-1-one], the AC50 was in the range of 0.5 to 1 µM. On to `O=C(CCc1nccs1)N1CCc2[nH]cnc2[C@@H]1c1nc2ccc(Br)cc2s1` [Example 1082, (R)-1-(4-(6-bromobenzo[d]thiazol-2-yl)-6,7-dihydro-1H-imidazo[4,5-c]pyridin-5(4H)-yl)-3-(thiazol-2-yl)propan-1-one], for which the AC50 is over 5 µM. In the case of `COc1ccn2ncc(C(=O)N3CCc4[nH]cnc4[C@H]3c3nc4ccccc4s3)c2c1` [Example 1083] it was under 0.5 µM; in that of `COc1ccn2ncc(C(=O)N3CCc4[nH]cnc4[C@@H]3c3nc4ccccc4s3)c2c1` [Example 1084, (R)-(4-(benzo[d]thiazol-2-yl)-6,7-dihydro-1H-imidazo[4,5-c]pyridin-5(4H)-yl)(5-methoxypyrazolo[1,5-a]pyridin-3-yl)methanone], 1 to 5 µM. In the case of `N#Cc1ccn2ncc(C(=O)N3CCc4[nH]cnc4[C@H]3c3nc4ccccc4s3)c2c1` [Example 1085, (S)-3-(4-(benzo[d]thiazol-2-yl)-4,5,6,7-tetrahydro-1H-imidazo[4,5-c]pyridine-5-carbonyl)pyrazolo[1,5-a]pyridine-5-carbonitrile] it was under 0.5 µM; in that of `N#Cc1ccn2ncc(C(=O)N3CCc4[nH]cnc4[C@@H]3c3nc4ccccc4s3)c2c1` [Example 1086, (R)-3-(4-(benzo[d]thiazol-2-yl)-4,5,6,7-tetrahydro-1H-imidazo[4,5-c]pyridine-5-carbonyl)pyrazolo[1,5-a]pyridine-5-carbonitrile], 1 to 5 µM; in that of `Cc1ccc2c(C(=O)N3CCc4[nH]cnc4[C@H]3c3nc4ccccc4s3)cnn2c1` [Example 1087], 0.5 to 1 µM. In the case of `Cc1ccc2c(C(=O)N3CCc4[nH]cnc4[C@@H]3c3nc4ccccc4s3)cnn2c1` [Example 1088, (R)-(4-(benzo[d]thiazol-2-yl)-6,7-dihydro-1H-imidazo[4,5-c]pyridin-5(4H)-yl)(6-methylpyrazolo[1,5-a]pyridin-3-yl)methanone] it was over 5 µM; in that of `O=C(CCc1nnc(Br)s1)N1CCc2[nH]cnc2[C@H]1c1nc2ccccc2s1` [Example 1089], 0.5 to 1 µM. With `O=C(CCc1nnc(Br)s1)N1CCc2[nH]cnc2[C@@H]1c1nc2ccccc2s1` [Example 1090, (R)-1-(4-(benzo[d]thiazol-2-yl)-6,7-dihydro-1H-imidazo[4,5-c]pyridin-5(4H)-yl)-3-(5-bromo-1,3,4-thiadiazol-2-yl)propan-1-one], the AC50 is over 5 µM. Regarding `O=C(c1nc2c(F)cccc2s1)N1CCc2[nH]cnc2[C@@H]1c1nc2ccccc2s1` [Example 1091, (R)-(4-(benzo[d]thiazol-2-yl)-6,7-dihydro-1H-imidazo[4,5-c]pyridin-5(4H)-yl)(4-fluorobenzo[d]thiazol-2-yl)methanone], the AC50 was over 5 µM. Take `O=C(c1nc2c(F)cccc2s1)N1CCc2[nH]cnc2[C@H]1c1nc2ccccc2s1` [Example 1092]: the AC50 is 0.5 to 1 µM.

Consider `O=C(CCC1CC1)N1CCc2[nH]cnc2[C@H]1c1nc2ccc(F)cc2s1` [Example 1093, (S)-3-cyclopropyl-1-(4-(6-fluorobenzo[d]thiazol-2-yl)-6,7-dihydro-1H-imidazo[4,5-c]pyridin-5(4H)-yl)propan-1-one], for which the concentration at half-maximal activity (AC50) was 0.5 to 1 µM. For the compound `O=C(CCC1CC1)N1CCc2[nH]cnc2[C@@H]1c1nc2ccc(F)cc2s1` [Example 1094, (R)-3-cyclopropyl-1-(4-(6-fluorobenzo[d]thiazol-2-yl)-6,7-dihydro-1H-imidazo[4,5-c]pyridin-5(4H)-yl)propan-1-one], the AC50 was over 5 µM. `O=C(c1nc2cc(F)ccc2s1)N1CCc2[nH]cnc2[C@H]1c1nc2ccccc2s1` [Example 1095]: the AC50 is 0.5 to 1 µM. For `O=C(c1nc2cc(F)ccc2s1)N1CCc2[nH]cnc2[C@@H]1c1nc2ccccc2s1` [Example 1096, (R)-(4-(benzo[d]thiazol-2-yl)-6,7-dihydro-1H-imidazo[4,5-c]pyridin-5(4H)-yl)(5-fluorobenzo[d]thiazol-2-yl)methanone], the AC50 was over 5 µM. Turning to `O=C(c1cnco1)N1CCc2[nH]cnc2[C@H]1c1nc2ccccc2s1` [Example 1097], the AC50 was in the range of 0.5 to 1 µM. In the case of `O=C(c1cnco1)N1CCc2[nH]cnc2[C@@H]1c1nc2ccccc2s1` [Example 1098, (R)-(4-(benzo[d]thiazol-2-yl)-6,7-dihydro-1H-imidazo[4,5-c]pyridin-5(4H)-yl)(oxazol-5-yl)methanone] it was over 5 µM. As for `O=C(c1cnn2ccccc12)N1CCc2[nH]cnc2[C@H]1c1nc2ccc(F)cc2s1` [Example 1099, (S)-(4-(6-fluorobenzo[d]thiazol-2-yl)-6,7-dihydro-1H-imidazo[4,5-c]pyridin-5(4H)-yl)(pyrazolo[1,5-a]pyridin-3-yl)methanone], the AC50 lay in the range of 1 to 5 µM. In the case of `O=C(c1cnn2ccccc12)N1CCc2[nH]cnc2[C@@H]1c1nc2ccc(F)cc2s1` [Example 1100, (R)-(4-(6-fluorobenzo[d]thiazol-2-yl)-6,7-dihydro-1H-imidazo[4,5-c]pyridin-5(4H)-yl)(pyrazolo[1,5-a]pyridin-3-yl)methanone] it was over 5 µM. In the case of `O=C(c1nccs1)N1CCc2[nH]cnc2[C@H]1c1nc2cccc(F)c2s1` [Example 1101, (S)-(4-(7-fluorobenzo[d]thiazol-2-yl)-6,7-dihydro-1H-imidazo[4,5-c]pyridin-5(4H)-yl)(thiazol-2-yl)methanone] it was 0.5 to 1 µM; in that of `O=C(c1nccs1)N1CCc2[nH]cnc2[C@@H]1c1nc2cccc(F)c2s1` [Example 1102, (R)-(4-(7-fluorobenzo[d]thiazol-2-yl)-6,7-dihydro-1H-imidazo[4,5-c]pyridin-5(4H)-yl)(thiazol-2-yl)methanone], 1 to 5 µM; in that of `O=C(c1cnn2ccc(F)cc12)N1CCc2[nH]cnc2[C@H]1c1nc2ccccc2s1` [Example 1103], 0.5 to 1 µM. For the compound `O=C(c1cnn2ccc(F)cc12)N1CCc2[nH]cnc2[C@@H]1c1nc2ccccc2s1` [Example 1104, (R)-(4-(benzo[d]thiazol-2-yl)-6,7-dihydro-1H-imidazo[4,5-c]pyridin-5(4H)-yl)(5-fluoropyrazolo[1,5-a]pyridin-3-yl)methanone], the AC50 lay within 1 to 5 µM. Regarding `O=C(c1ncn2ccccc12)N1CCc2[nH]cnc2[C@H]1c1nc2cc(F)ccc2s1` [Example 1105, (S)-(4-(5-fluorobenzo[d]thiazol-2-yl)-6,7-dihydro-1H-imidazo[4,5-c]pyridin-5(4H)-yl)(imidazo[1,5-a]pyridin-1-yl)methanone], the AC50 fell in the range of 0.5 to 1 µM. `O=C(c1ncn2ccccc12)N1CCc2[nH]cnc2[C@@H]1c1nc2cc(F)ccc2s1` [Example 1106, (R)-(4-(5-fluorobenzo[d]thiazol-2-yl)-6,7-dihydro-1H-imidazo[4,5-c]pyridin-5(4H)-yl)(imidazo[1,5-a]pyridin-1-yl)methanone]: the AC50 lay within 1 to 5 µM.

Regarding `O=C(c1cnn2ccc(Cl)cc12)N1CCc2[nH]cnc2[C@H]1c1nc2ccccc2s1` [Example 1107], the concentration at half-maximal activity (AC50) is under 0.5 µM.

For `O=C(c1cnn2ccc(Cl)cc12)N1CCc2[nH]cnc2[C@@H]1c1nc2ccccc2s1` [Example 1108, (R)-(4-(benzo[d]thiazol-2-yl)-6,7-dihydro-1H-imidazo[4,5-c]pyridin-5(4H)-yl)(5-chloropyrazolo[1,5-a]pyridin-3-yl)methanone], the half-maximal activity concentration (AC50) fell in the range of 1 to 5 µM. Turning to `O=C(c1cnn2ccccc12)N1CCc2[nH]cnc2[C@H]1c1nc2cccc(F)c2s1` [Example 1109, (S)-(4-(7-fluorobenzo[d]thiazol-2-yl)-6,7-dihydro-1H-imidazo[4,5-c]pyridin-5(4H)-yl)(pyrazolo[1,5-a]pyridin-3-yl)methanone], the AC50 was 0.5 to 1 µM.
